Values quoted from earlier work in paper PMC10444862, “Using macromolecular electron densities to improve the enrichment of active compounds in virtual screening” (Communications Chemistry, 2023).

Test system: AMPC
Conditions: activities reported in the DUD-E dataset; cited from earlier work

SMILES	label
Nc1onc(-c2ccc(Cl)cc2)c1C(=O)O [317_12, Nc1onc(-c2ccc(Cl)cc2)c1C(=O)[O-]]	active
O=C(O)c1sccc1S(=O)(=O)Nc1ccccc1N1CCCCC1 [104_58, O=C([O-])c1sccc1S(=O)(=O)Nc1ccccc1N1CCCCC1]	active
CSCC[C@@H](C(=O)O)N1C(=O)c2ccc(C(=O)O)cc2C1=O [212_4, CSCC[C@@H](C(=O)[O-])N1C(=O)c2ccc(C(=O)[O-])cc2C1=O]	active
Cc1nc2ccc(P(=O)(O)O)cc2s1 [319_2, Cc1nc2ccc([P@](=O)([O-])O)cc2s1]	active
O=C(O)c1ccccc1S(=O)(=O)Nc1ccc(Cl)cc1 [109_49, O=C([O-])c1ccccc1S(=O)(=O)Nc1ccc(Cl)cc1]	active
